Assay results taken from publication PMC10502144, “Anti-methicillin-resistant Staphylococcus aureus activity and safety evaluation of 14-O-[(5-ethoxycarbonyl-4,6-dimethylpyrimidine-2-yl) thioacetyl] mutilin (EDT)” (Scientific Reports, 2023).
Counter-ions that a name gives are not always drawn. Like-named read-outs stand apart in the source and are kept apart here.

System: MRSA-337371
Assay: microbe, parasite or virus in culture
Assay type: cell-based, methicillin-resistant Staphylococcus aureus
Settings: for MIC: Staphylococcus aureus, MRSA
Procedure: We performed resistance induction tests on EDT and tiamulin which was used as a referent drug. […] Finally, MRSA was cultured for 30 generations with the same procedure. At the 31st generation, drugs were removed until 40th generation and MICs were determined in each generation.

C=C[C@]1(C)C[C@@H](OC(=O)CSCCN(CC)CC)[C@]2(C)[C@H](C)CC[C@]3(CCC(=O)[C@H]32)[C@@H](C)[C@@H]1O [tiamulin, Tiamulin fumarate, reference compound]
MIC (24 h, read-out: MIC in the resistance development study, day 1): 0.5 µg/mL | MIC (48 h, read-out: MIC in the resistance development study, day 2): 0.5 µg/mL | MIC (72 h, read-out: MIC in the resistance development study, day 3): 0.5 µg/mL | MIC (96 h, read-out: MIC in the resistance development study, day 4): 0.5 µg/mL | MIC (120 h, read-out: MIC in the resistance development study, day 5): 0.5 µg/mL | MIC (144 h, read-out: MIC in the resistance development study, day 6): 0.5 µg/mL | MIC (168 h, read-out: MIC in the resistance development study, day 7): 1 µg/mL | MIC (192 h, read-out: MIC in the resistance development study, day 8): 1 µg/mL | MIC (216 h, read-out: MIC in the resistance development study, day 9): 1 µg/mL | MIC (240 h, read-out: MIC in the resistance development study, day 10): 1 µg/mL | MIC (264 h, read-out: MIC in the resistance development study, day 11): 1 µg/mL | MIC (288 h, read-out: MIC in the resistance development study, day 12): 1 µg/mL | MIC (312 h, read-out: MIC in the resistance development study, day 13): 1 µg/mL | MIC (336 h, read-out: MIC in the resistance development study, day 14): 2 µg/mL | MIC (360 h, read-out: MIC in the resistance development study, day 15): 1 µg/mL | MIC (384 h, read-out: MIC in the resistance development study, day 16): 2 µg/mL | MIC (408 h, read-out: MIC in the resistance development study, day 17): 2 µg/mL | MIC (432 h, read-out: MIC in the resistance development study, day 18): 2 µg/mL | MIC (456 h, read-out: MIC in the resistance development study, day 19): 2 µg/mL | MIC (480 h, read-out: MIC in the resistance development study, day 20): 4 µg/mL | MIC (504 h, read-out: MIC in the resistance development study, day 21): 2 µg/mL | MIC (528 h, read-out: MIC in the resistance development study, day 22): 4 µg/mL | MIC (552 h, read-out: MIC in the resistance development study, day 23): 4 µg/mL | MIC (576 h, read-out: MIC in the resistance development study, day 24): 4 µg/mL | MIC (600 h, read-out: MIC in the resistance development study, day 25): 4 µg/mL | MIC (624 h, read-out: MIC in the resistance development study, day 26): 4 µg/mL | MIC (648 h, read-out: MIC in the resistance development study, day 27): 4 µg/mL | MIC (672 h, read-out: MIC in the resistance development study, day 28): 4 µg/mL | MIC (696 h, read-out: MIC in the resistance development study, day 29): 4 µg/mL | MIC (read-out: MIC in the resistance development study, day 30): 4 µg/mL | MIC (read-out: MIC in the resistance development study, day 31, drugs removed): 4 µg/mL | MIC (read-out: MIC in the resistance development study, day 32, drugs removed): 4 µg/mL | MIC (read-out: MIC in the resistance development study, day 33, drugs removed): 2 µg/mL | MIC (read-out: MIC in the resistance development study, day 34, drugs removed): 2 µg/mL | MIC (read-out: MIC in the resistance development study, day 35, drugs removed): 2 µg/mL | increase in the MIC values (after 7 generations of continuous culture of MRSA): twofold | sensitivity of MRSA after removing drugs (after removing drugs and culturing for additional 10 generations): recovered the initial sensitivity | increase in the MIC values (at 22 generations): eightfold
